In patent US20110212968A1, “PHENETHYLAMIDE DERIVATIVES AND THEIR HETEROCYCLIC ANALOGUES” (priority 2008, published 2011) one finds IC50 data, which are given here for 19 compounds.

A value given as a limit tells only on which side of the number the result lay.

One assay concerns the target T1, human orexin-2 receptor (Homo sapiens, UniProt O43614).
T1 construct: expressed in transfected cells; host or cells: CHO (Chinese hamster ovary) cells, kept under G418 selection
T1 sequence (O43614 1-444): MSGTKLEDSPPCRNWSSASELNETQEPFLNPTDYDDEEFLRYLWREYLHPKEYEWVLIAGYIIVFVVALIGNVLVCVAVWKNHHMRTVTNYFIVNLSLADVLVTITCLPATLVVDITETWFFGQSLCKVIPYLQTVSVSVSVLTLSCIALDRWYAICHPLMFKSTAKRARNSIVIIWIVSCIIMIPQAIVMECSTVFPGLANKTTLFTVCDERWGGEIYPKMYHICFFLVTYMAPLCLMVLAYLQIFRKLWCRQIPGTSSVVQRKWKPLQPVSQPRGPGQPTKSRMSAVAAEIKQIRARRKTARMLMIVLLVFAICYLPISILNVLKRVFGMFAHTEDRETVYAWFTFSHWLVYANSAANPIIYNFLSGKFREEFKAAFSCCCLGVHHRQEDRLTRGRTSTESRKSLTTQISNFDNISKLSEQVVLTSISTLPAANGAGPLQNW
The assay is described as follows: Intracellular calcium measurement (FLIPR Tetra), orexin receptor antagonistic activity, OX2. The format is cell-based. The settings on record: CHO cells expressing human orexin-2 receptor, 3 nM orexin-A, conditions B. The protocol:
(§1) The orexin receptor antagonistic activity of the compounds of formula (I) is determined in accordance with one of the following experimental methods.
(§2) Chinese hamster ovary (CHO) cells expressing the human orexin-1 receptor and the human orexin-2 receptor, respectively, are grown in culture medium (Ham F-12 with L-Glutamine) containing 300 μg/ml G418, 100 U/ml penicillin, 100 μg/ml streptomycin and 10% heat inactivated fetal calf serum (FCS). The cells are seeded at 20,000 cells/well into 384-well black clear bottom sterile plates (Greiner). The seeded plates are incubated overnight at 37° C. in 5% CO2.
(§3) Human orexin-A as an agonist is prepared as 1 mM stock solution in MeOH:water (1:1), diluted in HBSS containing 0.1% bovine serum albumin (BSA), NaHCO3: 0.375 g/l and 20 mM HEPES for use in the assay at a final concentration of 3 nM. Antagonists are prepared as 10 mM stock solution in DMSO, then diluted in 384-well plates, first in DMSO, then in HBSS containing 0.1% bovine serum albumin (BSA), NaHCO3: 0.375 g/l and 20 mM HEPES.
(§4) On the day of the assay, 50 μl of staining buffer (HBSS containing 1% FCS, 20 mM HEPES, NaHCO3: 0.375 g/l, 5 mM probenecid (Sigma) and 3 μM of the fluorescent calcium indicator fluo-4 AM (1 mM stock solution in DMSO, containing 10% pluronic) is added to each well.
(§5) The 384-well cell-plates are incubated for 50 min at 37° C. in 5% CO2 followed by equilibration at RT for 30-120 min before measurement.
(§6) Within the Fluorescent Imaging Plate Reader (FLIPR Tetra, Molecular Devices), antagonists are added to the plate in a volume of 10 μl/well, incubated for 10 min and finally 10 μl/well of agonist is added. Fluorescence is measured for each well at 1 second intervals, and the height of each fluorescence peak is compared to the height of the fluorescence peak induced by 3 nM orexin-A with vehicle in place of antagonist. For each antagonist, the IC50 value (the concentration of compound needed to inhibit 50% of the agonistic response) is determined and may be normalized using the obtained IC50 value of a on-plate reference compound (normalized values in Table 1 are indicated by an asterisk *). With the FLIPR Tetra, two different conditions (conditions A and conditions B) were used, differing in adjustment of pipetting speed and cell splitting regime. The calculated IC50 values of the compounds may fluctuate depending on the daily cellular assay performance. Fluctuations of this kind are known to those skilled in the art.

A further assay addresses T2, human orexin-1 receptor (Homo sapiens, UniProt O43613).
T2 construct: expressed in transfected cells; host or cells: CHO (Chinese hamster ovary) cells, kept under G418 selection
T2 sequence (O43613 1-425): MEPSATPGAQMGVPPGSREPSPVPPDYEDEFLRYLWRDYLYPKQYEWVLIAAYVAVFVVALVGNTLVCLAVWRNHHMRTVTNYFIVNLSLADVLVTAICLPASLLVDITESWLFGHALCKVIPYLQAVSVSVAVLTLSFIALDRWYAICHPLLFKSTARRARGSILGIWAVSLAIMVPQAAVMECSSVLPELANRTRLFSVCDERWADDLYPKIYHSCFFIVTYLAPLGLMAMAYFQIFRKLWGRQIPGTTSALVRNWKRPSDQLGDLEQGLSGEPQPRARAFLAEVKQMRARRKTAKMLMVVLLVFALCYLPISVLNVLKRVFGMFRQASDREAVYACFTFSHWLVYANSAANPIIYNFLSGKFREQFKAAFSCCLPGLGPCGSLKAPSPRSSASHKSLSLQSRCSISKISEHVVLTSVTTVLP
The assay is described as follows: Intracellular calcium measurement (FLIPR Tetra), orexin receptor antagonistic activity, OX1. The note with it: CHO cells expressing human orexin-1 receptor, 3 nM orexin-A, conditions B. The format is cell-based. The protocol:
as §1, §2, §3, §4, §5, §6

[1] abbreviates: normalized (*) using IC50 of on-plate reference compound.

For `Cc1cccc(-c2sc(N)nc2C(=O)N(CCc2ccc3c(c2)OC(F)(F)O3)CC2CC2)c1` [Example 157, 2-Amino-5-m-tolyl-thiazole-4-carboxylic acid cyclopropylmethyl-[2-(2,2-difluoro-benzo[1,3]dioxol-5-yl)-ethyl]-amide], the IC50 came out at 0.745 µM on human orexin-2 receptor and 8.51 µM at human orexin-1 receptor.
The matching figures for `COc1ccc(CCN(CC2CC2)C(=O)c2nc(N)sc2-c2cccc(C)c2)cc1SC` [Example 161, 2-Amino-5-m-tolyl-thiazole-4-carboxylic acid cyclopropylmethyl-[2-(4-methoxy-3-methylsulfanyl-phenyl)-ethyl]-amide]: 0.006 µM and 0.01 µM.
The matching figures for `COc1ccc(CCN(CC2CC2)C(=O)c2nc(N)sc2-c2cccc(C)c2)cc1Br` [Example 163, 2-Amino-5-m-tolyl-thiazole-4-carboxylic acid [2-(3-bromo-4-methoxy-phenyl)-ethyl]-cyclopropylmethyl-amide]: 0.018 µM and 0.081 µM.
Regarding `COc1ccc(CCN(CC2CC2)C(=O)c2nc(N)sc2-c2cccc(C)c2)cc1OC(F)F` [Example 165, 2-Amino-5-m-tolyl-thiazole-4-carboxylic acid cyclopropylmethyl-[2-(3-difluoromethoxy-4-methoxy-phenyl)-ethyl]-amide], the IC50 on human orexin-2 receptor (setting [1]) turned out to be 0.018 µM; on human orexin-1 receptor (setting [1]), 0.035 µM.
Turning to `Cc1cccc(-c2sc(N)nc2C(=O)N(CCc2ccc3ccccc3c2)CC2CC2)c1` [Example 167, 2-Amino-5-m-tolyl-thiazole-4-carboxylic acid cyclopropylmethyl-(2-naphthalen-2-yl-ethyl)-amide], the IC50 at human orexin-2 receptor worked out at 0.045 µM; on human orexin-1 receptor, 0.171 µM.
With `CCC(Cc1ccc(OC)c(OC)c1)N(CC1CC1)C(=O)c1nc(N)sc1-c1cccc(C)c1` (centres unmarked) [Example 169, 2-Amino-5-m-tolyl-thiazole-4-carboxylic acid cyclopropylmethyl-[1-(3,4-dimethoxy-benzyl)-propyl]-amide], the IC50 at human orexin-2 receptor is 0.027 µM; on human orexin-1 receptor it was 0.025 µM.
For `COc1cc(CCN(CC2CC2)C(=O)c2nc(N)sc2-c2cccc(C)c2)cc(OC)c1OC(C)C` [Example 173, 2-Amino-5-m-tolyl-thiazole-4-carboxylic acid cyclopropylmethyl-[2-(4-isopropoxy-3,5-dimethoxy-phenyl)-ethyl]-amide] the same measures were 0.012 µM and 0.147 µM.
As for `Cc1cccc(-c2sc(N)nc2C(=O)N(CCc2csc(N)n2)CC2CC2)c1` [Example 177, 2-Amino-5-m-tolyl-thiazole-4-carboxylic acid [2-(2-amino-thiazol-4-yl)-ethyl]-cyclopropylmethyl-amide], the IC50 on human orexin-2 receptor is 0.954 µM; on human orexin-1 receptor it was over 10 µM.
The matching figures for `CCc1nc(I)cn1CCN(CC1CC1)C(=O)c1nc(N)sc1-c1cccc(C)c1` [Example 178, 2-Amino-5-m-tolyl-thiazole-4-carboxylic acid cyclopropylmethyl-[2-(2-ethyl-4-iodo-imidazol-1-yl)-ethyl]-amide]: 0.943 µM and 0.739 µM.
For `Cc1nc(C(=O)N(CCc2ccccc2Cl)CC2CC2)c(-c2ccc(C)c(C)c2)s1` [Example 180, 5-(3,4-Dimethyl-phenyl)-2-methyl-thiazole-4-carboxylic acid [2-(2-chloro-phenyl)-ethyl]-cyclopropylmethyl-amide] the same measures were 0.24 µM and 4.36 µM.
For `Cc1nc(C(=O)N(CCc2ccc(C(F)(F)F)cc2)CC2CC2)c(-c2ccc(C)c(C)c2)s1` [Example 192, 5-(3,4-Dimethyl-phenyl)-2-methyl-thiazole-4-carboxylic acid cyclopropylmethyl-[2-(4-trifluoromethyl-phenyl)-ethyl]-amide] the same measures were 0.719 µM and over 10 µM.
As to `Cc1nc(C(=O)N(CCc2ccc3c(c2)OCCO3)CC2CC2)c(-c2ccc(C)c(C)c2)s1` [Example 198, 5-(3,4-Dimethyl-phenyl)-2-methyl-thiazole-4-carboxylic acid cyclopropylmethyl-[2-(2,3-dihydro-benzo[1,4]dioxin-6-yl)-ethyl]-amide], the IC50 came to 0.065 µM at human orexin-2 receptor and 1.07 µM at human orexin-1 receptor.
The matching figures for `CCOc1ccc(CCN(CC2CC2)C(=O)c2nc(C)sc2-c2ccc(C)c(C)c2)cc1OC` [Example 199, 5-(3,4-Dimethyl-phenyl)-2-methyl-thiazole-4-carboxylic acid cyclopropylmethyl-[2-(4-ethoxy-3-methoxy-phenyl)-ethyl]-amide]: 0.009 µM and 0.404 µM.
With `COc1ccc(CCN(CC2CC2)C(=O)c2nc(C)sc2-c2ccc(C)c(C)c2)cc1SC` [Example 201, 5-(3,4-Dimethyl-phenyl)-2-methyl-thiazole-4-carboxylic acid cyclopropylmethyl-[2-(4-methoxy-3-methylsulfanyl-phenyl)-ethyl]-amide], the IC50 on human orexin-2 receptor was 0.015 µM; at human orexin-1 receptor, 0.021 µM.
For `COc1ccc(CCN(CC2CC2)C(=O)c2nc(C)sc2-c2ccc(C)c(C)c2)cc1C` [Example 202, 5-(3,4-Dimethyl-phenyl)-2-methyl-thiazole-4-carboxylic acid cyclopropylmethyl-[2-(4-methoxy-3-methyl-phenyl)-ethyl]-amide] the same measures were 0.022 µM and 0.447 µM.
The matching figures for `COc1cc(CCN(CC2CC2)C(=O)c2nc(C)sc2-c2ccc(C)c(C)c2)ccc1O` [Example 207, 5-(3,4-Dimethyl-phenyl)-2-methyl-thiazole-4-carboxylic acid cyclopropylmethyl-[2-(4-hydroxy-3-methoxy-phenyl)-ethyl]-amide]: 0.012 µM and 0.538 µM.
In the case of `COc1cc(CCN(CC2CC2)C(=O)c2nc(C)sc2-c2ccc(C)c(C)c2)c(OC)cc1I` [Example 213, 5-(3,4-Dimethyl-phenyl)-2-methyl-thiazole-4-carboxylic acid cyclopropylmethyl-[2-(4-iodo-2,5-dimethoxy-phenyl)-ethyl]-amide], the IC50 came out at 0.153 µM at human orexin-2 receptor and 0.157 µM at human orexin-1 receptor.
Consider `Cc1cccc(-c2sc(N)nc2C(=O)N(CCc2nc3ccc(Cl)cc3[nH]2)CC2CC2)c1` [Example 220, 2-Amino-5-m-tolyl-thiazole-4-carboxylic acid [2-(6-chloro-1H-benzoimidazol-2-yl)-ethyl]-cyclopropylmethyl-amide], for which the IC50 on human orexin-2 receptor stood at 0.031 µM; at human orexin-1 receptor, 0.139 µM.
For `Cc1cccc(-c2sc(N)nc2C(=O)N(CCn2ccc3ccccc32)CC2CC2)c1` [Example 221, 2-Amino-5-m-tolyl-thiazole-4-carboxylic acid cyclopropylmethyl-(2-indol-1-yl-ethyl)-amide] the same measures were 0.201 µM and 0.243 µM.
